Test results as given in the NIST ThermoML archive (doi:10.1021/je800751m).

Assay: excess molar enthalpy (molar enthalpy of mixing); xn = mol fraction of the nth substance listed
Conditions: 298.15 K, 101 kPa, Liquid, Flow calorimetry

C1CCCCC1 [cyclohexane] + CCCCO
Conditions	excess molar enthalpy [kcal/mol]
x1 = 0.0503	0.0163
x1 = 0.0998	0.0346
x1 = 0.1502	0.052
x1 = 0.1998	0.0685
x1 = 0.2502	0.0836
x1 = 0.2997	0.0974
x1 = 0.35	0.1103
x1 = 0.4002	0.122
x1 = 0.4503	0.1321
x1 = 0.5003	0.1404
x1 = 0.5501	0.1466
x1 = 0.5997	0.1505
x1 = 0.6501	0.1517
x1 = 0.7002	0.1498
x1 = 0.7501	0.1445
x1 = 0.7996	0.1355
x1 = 0.85	0.123
x1 = 0.9	0.105
x1 = 0.9496	0.0799
